The results in this text go back to PubChem BioAssay (NCI).

Test systems include HCT-116 colon; HOP-92 NSCLC; IGROV1 ovarian; LOX IMVI melanoma; M14 melanoma; OVCAR-5 ovarian; SK-MEL-28 melanoma; SNB-19 CNS; SR leukemia; SW-620 colon.
What all share (test): NCI tumour cell line growth inhibition, 48 h

Each structure is given as a SMILES string.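 These data come from cells grown in 96-well plates and exposed to compound for 48 hours at five concentrations. TGI: total growth inhibition.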

With `CC(C)C(/C=C/c1ccccc1)=N\NC(=S)NN`, the TGI with HCT-116 colon, in the test with HOP-92 NSCLC, with IGROV1 ovarian, in the test with LOX IMVI melanoma, in the test with M14 melanoma and in the test with OVCAR-5 ovarian was more than 100 µM in each case. In addition, the TGI in the test with SK-MEL-28 melanoma, with SNB-19 CNS, with SR leukemia and in the test with SW-620 colon was more than 100 µM each time.
Take `CC(=O)C(C(=O)C(C)(C)C)C(=O)C(C)(C)C`: the TGI in the test with HCT-116 colon, in the test with HOP-92 NSCLC, in the test on LOX IMVI melanoma, with M14 melanoma, with OVCAR-5 ovarian and in the test on SK-MEL-28 melanoma was more than 100 µM throughout. The TGI with SNB-19 CNS, with SR leukemia and with SW-620 colon was more than 100 µM each time.
For `COc1cc(C2c3cc4c(cc3OC(N3CCOCC3)C2C)OCO4)cc(OC)c1OC(C)=O` (configuration not stated), the TGI with HCT-116 colon is 60.8 µM; with HOP-92 NSCLC, more than 100 µM; in the test on IGROV1 ovarian, more than 100 µM; in the test on LOX IMVI melanoma it was more than 100 µM; in the test on M14 melanoma, more than 56.8 µM; in the test on OVCAR-5 ovarian, more than 100 µM. In addition, the TGI with SK-MEL-28 melanoma was more than 91.6 µM; with SNB-19 CNS it was more than 46.4 µM; in the test on SR leukemia, more than 72 µM; with SW-620 colon it was more than 100 µM.
As to `O=Cc1cc(O)c(O)c(/C=N/n2c3ccccc3c3ccccc32)c1`, the TGI in the test with HCT-116 colon was 31.2 µM; in the test with HOP-92 NSCLC it was 9.23 µM; in the test on LOX IMVI melanoma, more than 100 µM; with M14 melanoma, 23.6 µM; with OVCAR-5 ovarian it was 49 µM; in the test with SK-MEL-28 melanoma, 42.1 µM. In addition, the TGI was more than 100 µM in the test with SNB-19 CNS, 21.4 µM in the test with SR leukemia and 44.7 µM with SW-620 colon.
On to `CC(CC(C)(C)[N+](C)(C)C)[N+](C)(C)C` (configuration not stated), for which the TGI in the test with HCT-116 colon, in the test on HOP-92 NSCLC, in the test with IGROV1 ovarian, in the test with M14 melanoma, with OVCAR-5 ovarian and with SK-MEL-28 melanoma was more than 100 µM in each case. The TGI with SNB-19 CNS, with SR leukemia and in the test with SW-620 colon was more than 100 µM in each case.
`Cc1csc2n(C)c(=O)c3ccccc3[n+]12`: the TGI in the test on HCT-116 colon, with IGROV1 ovarian, in the test with LOX IMVI melanoma, in the test with M14 melanoma, in the test with OVCAR-5 ovarian and in the test on SK-MEL-28 melanoma was more than 100 µM in each case. Further, the TGI in the test on SNB-19 CNS, in the test on SR leukemia and in the test with SW-620 colon was more than 100 µM each time.
On to `Clc1cccc(N=C/C=C/Nc2cccc(Cl)c2)c1`, for which the TGI in the test with HCT-116 colon is 28.2 µM; in the test with HOP-92 NSCLC, more than 100 µM; with IGROV1 ovarian it was 39.3 µM; in the test on LOX IMVI melanoma it was 20.6 µM; in the test on OVCAR-5 ovarian, 59.9 µM; in the test on SK-MEL-28 melanoma, 29.6 µM. The TGI was 62.3 µM with SR leukemia and 43.9 µM in the test with SW-620 colon.
On to `S=C1CSc2c(cnc3ccccc23)N1`, for which the TGI in the test with HCT-116 colon, in the test with IGROV1 ovarian, in the test with LOX IMVI melanoma, in the test with M14 melanoma, in the test on OVCAR-5 ovarian and in the test with SK-MEL-28 melanoma was more than 100 µM in each case. Also, the TGI in the test on SNB-19 CNS and in the test with SR leukemia was more than 100 µM in each case.
For the molecule `C=CCc1cccc2cc(C(=O)Nc3nc(C45CC6CC(CC(C6)C4)C5)cs3)c(=O)oc12`, the TGI in the test on HOP-92 NSCLC is 43.1 µM; with IGROV1 ovarian it was 94.5 µM; with LOX IMVI melanoma, 42.8 µM; in the test with OVCAR-5 ovarian, more than 100 µM; with SK-MEL-28 melanoma it was more than 100 µM; in the test on SNB-19 CNS, 64.2 µM. Moreover, the TGI in the test with SR leukemia and in the test on SW-620 colon was more than 100 µM throughout.
As for `NC(CNc1ccc(O)cc1)C(=O)O` (configuration not stated), the TGI with HCT-116 colon, in the test on HOP-92 NSCLC, in the test on LOX IMVI melanoma, in the test on M14 melanoma, in the test on OVCAR-5 ovarian and with SK-MEL-28 melanoma was more than 100 µM each time. Further, the TGI in the test with SNB-19 CNS, with SR leukemia and with SW-620 colon was more than 100 µM in each case.
Take `c1cn[nH]c1`: the TGI with HCT-116 colon, in the test on HOP-92 NSCLC, in the test on IGROV1 ovarian, with LOX IMVI melanoma, in the test with SK-MEL-28 melanoma and in the test with SNB-19 CNS was more than 10 µM throughout. Also, the TGI in the test on SR leukemia and with SW-620 colon was more than 10 µM each time.
As for `O=c1c(S(=O)(=O)Oc2ccccc2)coc2cc(F)ccc12`, the TGI in the test on HCT-116 colon, in the test with IGROV1 ovarian, in the test on LOX IMVI melanoma, in the test with M14 melanoma, in the test with OVCAR-5 ovarian and in the test with SK-MEL-28 melanoma was more than 100 µM throughout. Further, the TGI in the test with SNB-19 CNS, with SR leukemia and with SW-620 colon was more than 100 µM in each case.
Consider `CN(/N=C/c1ccc(Cl)c(Cl)c1)C1=NCCN1`, for which the TGI in the test with HCT-116 colon was 39.1 µM; in the test with HOP-92 NSCLC, 62.6 µM; with IGROV1 ovarian, more than 100 µM; in the test with LOX IMVI melanoma, 27.7 µM; in the test on M14 melanoma, 31.6 µM; in the test on OVCAR-5 ovarian it was more than 100 µM. The TGI is more than 100 µM in the test on SNB-19 CNS, 86.7 µM in the test with SR leukemia and 54.4 µM with SW-620 colon.
Consider `CN(C)/C=N/S(=O)(=O)c1nn2c(C=O)c(-c3cc4ccccc4oc3=O)nc2s1`, for which the TGI in the test on HCT-116 colon is 5.89 µM; with HOP-92 NSCLC, 19.2 µM; in the test with IGROV1 ovarian it was 25.1 µM; in the test with LOX IMVI melanoma, 15.4 µM; with OVCAR-5 ovarian it was more than 84.3 µM; in the test on SK-MEL-28 melanoma it was 12.1 µM. In addition, the TGI in the test with SNB-19 CNS was more than 100 µM; in the test on SR leukemia it was 36.5 µM; with SW-620 colon, more than 29.4 µM.
Regarding `COC1=C(OC)C(=O)C(Cc2c(Cl)nc3n2CCS3)=C(C)C1=O`, the TGI came to 25.3 µM with HCT-116 colon; 30.5 µM with IGROV1 ovarian; 29.3 µM in the test on LOX IMVI melanoma; 27.2 µM with M14 melanoma; 36 µM in the test with OVCAR-5 ovarian; 27.2 µM in the test with SK-MEL-28 melanoma. Also, the figures for the TGI in the test on SNB-19 CNS, with SR leukemia and in the test on SW-620 colon were 33.1 µM, 25.9 µM and 33.8 µM, respectively.
For the molecule `O=C(c1ccccc1)n1[nH]c(=O)n(-c2ccc(Cl)cc2)c1=O`, the TGI in the test with HCT-116 colon, in the test on IGROV1 ovarian, with LOX IMVI melanoma, in the test with M14 melanoma, in the test with OVCAR-5 ovarian and with SK-MEL-28 melanoma was more than 100 µM in each case. For the same molecule, the TGI is 83.3 µM in the test with SNB-19 CNS, more than 100 µM with SR leukemia and more than 100 µM in the test on SW-620 colon.
